Biological target: Src (Gallus gallus, UniProt P00523, Y527F)
Test: In vitro activity assay with Src phospho-isoforms
Type: biochemical
Conditions: npY416-Src vs pY416-Src

Fold-difference in Ki, preference for npY416-Src over pY416-Src: ~ 11 fold
SMILES: CNC(=O)c1cc(Oc2ccc(NC(=O)Nc3cc(C(C)(C)C)nn3-c3ccc4ncccc4c3)c(F)c2)ccn1 [compound 1, Rebastinib]

— article PMC3880807 (ACS chemical biology, 2013)
